Laboratory results from ChEMBL document CHEMBL3286346, “Ultrapure ajulemic acid has improved CB2 selectivity with reduced CB1 activity” (Bioorg Med Chem, 2014).
Calls of active or inactive are those of the source. No cut-off for these calls is given here.

Columns and labels:
[1] = tested on: HL-60; experiment: Antiinflammatory activity in human HL60 cells assessed as stimulation of PGJ synthesis after 2 hrs by ELISA; assay type: functional, cell-based
[2] = tested on: Mus musculus; experiment: Antinociceptive activity in CD1 mouse assessed as increase in paw withdrawal latency at 56 mg/kg, po measured after 90 mins post dose by hot plate test relative to vehicle-treated control; assay type: functional, organism-based; set-up: dose 56 mg/kg
[3] = target: Cannabinoid receptor 2 (Homo sapiens, UniProt P34972); experiment: Displacement of [3H]-CP-55940 from human CB2 receptor expressed in HEK293T cell membranes by scintillation counting; set-up: species or system HEK-293T
[4] = tested on: HEK-293T; experiment: Selectivity ratio of Ki for human CB1 receptor expressed in HEK293T cell membranes to human CB2 receptor expressed in HEK293T cell membranes; assay type: cell-based
[5] = target: Cannabinoid receptor 1 (Homo sapiens, UniProt P21554); experiment: biochemical; assay type: cell-based, HEK-293T
Description: Displacement of [3H]-CP-55940 from human CB1 receptor expressed in HEK293T cell membranes by scintillation counting

[6] = tested on: Mus musculus; experiment: Toxicity in CD1 mouse assessed as time immobility on the ring for 5 mins at 30 mg/kg, po measured after 90 mins post dose by ring catalepsy test; assay type: organism-based; set-up: dose 30 mg/kg, route oral; conditions: in vivo
[7] = tested on: HL-60; experiment: Antiinflammatory activity in human HL60 cells assessed as stimulation of PGJ synthesis after 2 hrs by ELISA in presence of CB2 antagonist SR144528; assay type: functional, cell-based
[8] = tested on: Mus musculus; experiment: Toxicity in CD1 mouse assessed as hypothermia measured as lowering of core body temperature at 3 to 56 mg/kg, po measured after 90 mins post dose; assay type: organism-based; set-up: dose 3-56 mg/kg, route oral; conditions: in vivo, 1.5 h
[9] = tested on: HL-60; experiment: Antiinflammatory activity in human HL60 cells assessed as stimulation of PGJ synthesis after 2 hrs by ELISA in presence of CB1 antagonist SR141716; assay type: functional, cell-based
[10] = tested on: Mus musculus; experiment: Antinociceptive activity in CD1 mouse assessed as increase in paw withdrawal latency at 0.05 to 5 mg/kg, po measured after 90 mins post dose by hot plate test relative to vehicle-treated control; assay type: functional, organism-based

Chain of Cannabinoid receptor 1 (P21554 whole entry): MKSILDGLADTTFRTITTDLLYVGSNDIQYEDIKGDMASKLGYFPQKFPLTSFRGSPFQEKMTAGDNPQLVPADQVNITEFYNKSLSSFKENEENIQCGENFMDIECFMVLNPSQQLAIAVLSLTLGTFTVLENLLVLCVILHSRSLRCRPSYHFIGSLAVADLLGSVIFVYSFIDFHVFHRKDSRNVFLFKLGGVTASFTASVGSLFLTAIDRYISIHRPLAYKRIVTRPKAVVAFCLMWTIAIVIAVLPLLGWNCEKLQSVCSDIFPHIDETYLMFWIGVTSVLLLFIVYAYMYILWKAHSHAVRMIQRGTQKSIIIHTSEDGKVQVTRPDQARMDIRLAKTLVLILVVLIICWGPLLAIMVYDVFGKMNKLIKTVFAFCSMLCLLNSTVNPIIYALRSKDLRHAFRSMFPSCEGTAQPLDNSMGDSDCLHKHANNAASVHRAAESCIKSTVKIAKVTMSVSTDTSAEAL
Chain of Cannabinoid receptor 2 (P34972 whole entry): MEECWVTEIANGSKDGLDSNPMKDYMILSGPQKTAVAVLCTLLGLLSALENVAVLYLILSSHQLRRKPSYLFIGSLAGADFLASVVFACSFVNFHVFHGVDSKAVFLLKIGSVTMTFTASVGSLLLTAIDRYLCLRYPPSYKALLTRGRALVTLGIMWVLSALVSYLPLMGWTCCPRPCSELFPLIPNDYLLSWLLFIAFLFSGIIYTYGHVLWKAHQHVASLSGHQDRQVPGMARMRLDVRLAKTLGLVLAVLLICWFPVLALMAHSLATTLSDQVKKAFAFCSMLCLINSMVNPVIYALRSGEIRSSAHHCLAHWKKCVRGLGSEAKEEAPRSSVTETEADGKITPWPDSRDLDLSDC

SMILES	Activity [1]	Activity [2]	Ki [3]	Ratio Ki [4]	Ki [5]	Activity [6]	Activity [7]	Activity [8]	Activity [9]	Activity [10]
CCCCCCC(C)(C)c1cc(OC(C)=O)c2c(c1)OC(C)(C)[C@@H]1CC=C(C(=O)O)C[C@@H]21	Active	inactive	51 nM	12.3	628 nM	Toxic	inactive	Non-toxic	inactive	–
CCCCCCC(C)(C)c1cc(O)c2c(c1)OC(C)(C)[C@@H]1CC=C(C(=O)O)C[C@@H]21	–	–	–	–	–	–	–	–	–	Active
